This note sets out measurements from patent US10494378B2, “Fused ring pyrimidine compound, intermediate, and preparation method, composition and use thereof” (GUANGZHOU MAXINOVEL PHARMACEUTICALS CO., LTD., priority 2015, dated 2019).

Format in all cases: biochemical
One assay has as its target T1, FYN kinase (Homo sapiens, UniProt P06241).
T1 construct: purchased Carna 08-068
As to the kind of experiment: IC50 evaluation assay of Src family kinase inhibition: FYN. The settings on record: 28° C.; average of two tests; read-out: IC50 (nM) inhibiting Src family kinase FYN. As for the experimental part:
1. The compound was dissolved in 100% DMSO, diluted into solutions with appropriate concentration gradients with water according to experimental requirement, and added to a 96-well plate.
2. c-Src kinase (Carna, Cat. No. 08-173, Lot. No. 05CBS-1367), LYNαkinase (Carna, Cat. No. 08-171, Lot. No. 06CBS-3296D), FYN kinase (Carna, Cat. No. 08-068, Lot. No. 05CBS-1032), LCK kinase (Carna, Cat. No. 08-170, Lot. No. 07CBS-2482), HCK kinase (BPS, Cat. No. 40440, Lot. No. 1001), FGR kinase (Carna, Cat. No. 08-166, Lot. No. 05CBS-2781), YES kinase (Carna, Cat. No. 08-175, Lot. No. 06CBS-3247) were diluted to the optimum concentration with the following buffer solution: 50 mM HEPES, pH 7.5, 0.0015% Brij-35, 10 mM MgCl2, 2 mM DTT. Transfer to the 96-well plate and incubate with the compound at 28° C. for a period of time.
3. The buffer solution (100 mM HEPES, pH 7.5, 0.0015% Brij-35, 0.2% Coating Reagent and […]) was added to terminate the reaction.
4. The conversion rate was read with Caliper Reader. The inhibition rate was calculated as the average of two tests.

The target in a further assay is T2, JAK1 kinase (Homo sapiens, UniProt P23458).
T2 construct: purchased Carna 08-144
As to the kind of experiment: IC50 evaluation assay on JAK1 kinase inhibition (Caliper). The settings on record: adenosine triphosphate at Km; 1 hour at 28° C.; average of two tests; read-out: IC50 (nM) inhibiting JAK 1 kinase. As for the experimental part: (§1) 1. The compound was dissolved in 100% DMSO, diluted into solutions with appropriate concentration gradients with water according to experimental requirement, and added to a 384-well plate.
(§2) 2. JAK2 kinase (Carna, Cat. No. 08-045, Lot. No. 07CBS-1927) and JAK3 kinase (Carna, Cat. No. 08-046, Lot. No. 08CBS-0371) were diluted to the optimum concentration with the following buffer solution: 50 mM HEPES, pH 7.5, 0.0015% Brij-35, 2 mM DTT. JAK1 kinase (Carna, Cat. No. 08-144, Lot. No. 11CBS-0144D) was diluted to the optimum concentration with the following buffer solution: 25 mM HEPES pH 7.5, 0.01% Brij-35, 2 mM DTT, 0.01M Triton. Transfer to the 384-well plate and incubated with the compound for a period of time.
(§3) 3. […] The substrate of JAK1 was diluted to the optimum concentration with the following buffer: 25 mM HEPES, pH 7.5, 0.01% Brij-35, 10 mM MgCl2, 0.01M Triton, adenosine triphosphate at Km. Add to the 384-well plate to initiate there action and react for 1 hour at 28° C.
(§4) 4. 1 Eq. of sulfuric acid solution was added to terminate the reaction, the conversion rate was read with Caliper Reader. The inhibition rate was calculated as the average of two tests.

The next assay has as its target T3, JAK3 kinase (Homo sapiens, UniProt P52333).
T3 construct: purchased Carna 08-046
T3 sequence (P52333 1-1124): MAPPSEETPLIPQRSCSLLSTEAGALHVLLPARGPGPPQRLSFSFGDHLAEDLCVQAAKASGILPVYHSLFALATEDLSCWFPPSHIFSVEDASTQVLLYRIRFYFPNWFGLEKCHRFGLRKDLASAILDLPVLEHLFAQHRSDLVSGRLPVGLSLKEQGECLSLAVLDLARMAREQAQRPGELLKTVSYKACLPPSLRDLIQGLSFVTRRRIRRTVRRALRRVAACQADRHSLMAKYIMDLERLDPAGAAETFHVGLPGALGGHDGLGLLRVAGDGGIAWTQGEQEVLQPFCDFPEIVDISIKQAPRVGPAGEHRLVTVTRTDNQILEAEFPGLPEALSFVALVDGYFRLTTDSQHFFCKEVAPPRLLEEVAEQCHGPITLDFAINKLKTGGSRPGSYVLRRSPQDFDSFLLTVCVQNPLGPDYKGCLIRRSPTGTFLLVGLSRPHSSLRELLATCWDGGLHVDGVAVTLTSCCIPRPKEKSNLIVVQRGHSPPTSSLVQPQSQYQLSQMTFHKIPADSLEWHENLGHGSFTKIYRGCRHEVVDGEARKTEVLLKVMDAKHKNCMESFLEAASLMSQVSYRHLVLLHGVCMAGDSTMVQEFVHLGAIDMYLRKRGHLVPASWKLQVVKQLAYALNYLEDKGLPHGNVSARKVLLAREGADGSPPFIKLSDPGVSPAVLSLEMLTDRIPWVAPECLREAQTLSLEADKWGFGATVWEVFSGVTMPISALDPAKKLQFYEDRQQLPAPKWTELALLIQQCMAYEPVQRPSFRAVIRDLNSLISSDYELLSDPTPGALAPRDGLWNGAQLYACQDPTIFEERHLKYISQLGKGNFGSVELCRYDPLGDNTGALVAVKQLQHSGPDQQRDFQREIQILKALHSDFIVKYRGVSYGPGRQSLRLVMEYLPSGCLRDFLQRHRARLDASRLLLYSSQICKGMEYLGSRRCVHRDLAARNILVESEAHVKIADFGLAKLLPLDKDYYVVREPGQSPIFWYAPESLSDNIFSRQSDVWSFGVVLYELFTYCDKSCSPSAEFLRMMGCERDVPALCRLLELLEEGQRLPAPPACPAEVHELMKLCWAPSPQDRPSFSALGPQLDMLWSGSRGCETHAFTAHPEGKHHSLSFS
As to the kind of experiment: IC50 evaluation assay on JAK3 kinase inhibition (Caliper). The settings on record: adenosine triphosphate at Km; 1 hour at 28° C.; average of two tests; read-out: IC50 (nM) inhibiting JAK 3 kinase. As for the experimental part:
as §1, §2, §3, §4

A further assay deals with T4, JAK2 kinase (Homo sapiens, UniProt O60674).
T4 construct: purchased Carna 08-045
As to the kind of experiment: IC50 evaluation assay on JAK2 kinase inhibition (Caliper). The settings on record: adenosine triphosphate at Km; 1 hour at 28° C.; average of two tests; read-out: IC50 (nM) inhibiting JAK 2 kinase. On the procedure: as §1, §2, §3, §4

One may read the IC50 as the concentration at which inhibition is half-maximal.

T1 sequence (P06241 whole entry): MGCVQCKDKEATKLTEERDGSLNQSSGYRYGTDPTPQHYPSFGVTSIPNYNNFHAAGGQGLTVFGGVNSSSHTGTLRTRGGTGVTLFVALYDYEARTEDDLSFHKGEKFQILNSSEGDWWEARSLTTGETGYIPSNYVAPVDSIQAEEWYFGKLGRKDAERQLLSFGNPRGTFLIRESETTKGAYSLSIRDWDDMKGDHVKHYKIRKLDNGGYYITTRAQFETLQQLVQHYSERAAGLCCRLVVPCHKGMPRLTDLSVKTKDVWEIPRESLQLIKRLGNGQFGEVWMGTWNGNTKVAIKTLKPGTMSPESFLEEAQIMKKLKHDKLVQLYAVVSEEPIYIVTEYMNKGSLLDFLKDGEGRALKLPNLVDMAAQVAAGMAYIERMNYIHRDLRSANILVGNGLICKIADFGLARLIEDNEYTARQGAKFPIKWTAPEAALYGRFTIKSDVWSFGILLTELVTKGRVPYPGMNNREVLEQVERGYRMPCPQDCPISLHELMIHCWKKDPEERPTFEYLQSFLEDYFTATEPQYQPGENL
T2 sequence (P23458 whole entry): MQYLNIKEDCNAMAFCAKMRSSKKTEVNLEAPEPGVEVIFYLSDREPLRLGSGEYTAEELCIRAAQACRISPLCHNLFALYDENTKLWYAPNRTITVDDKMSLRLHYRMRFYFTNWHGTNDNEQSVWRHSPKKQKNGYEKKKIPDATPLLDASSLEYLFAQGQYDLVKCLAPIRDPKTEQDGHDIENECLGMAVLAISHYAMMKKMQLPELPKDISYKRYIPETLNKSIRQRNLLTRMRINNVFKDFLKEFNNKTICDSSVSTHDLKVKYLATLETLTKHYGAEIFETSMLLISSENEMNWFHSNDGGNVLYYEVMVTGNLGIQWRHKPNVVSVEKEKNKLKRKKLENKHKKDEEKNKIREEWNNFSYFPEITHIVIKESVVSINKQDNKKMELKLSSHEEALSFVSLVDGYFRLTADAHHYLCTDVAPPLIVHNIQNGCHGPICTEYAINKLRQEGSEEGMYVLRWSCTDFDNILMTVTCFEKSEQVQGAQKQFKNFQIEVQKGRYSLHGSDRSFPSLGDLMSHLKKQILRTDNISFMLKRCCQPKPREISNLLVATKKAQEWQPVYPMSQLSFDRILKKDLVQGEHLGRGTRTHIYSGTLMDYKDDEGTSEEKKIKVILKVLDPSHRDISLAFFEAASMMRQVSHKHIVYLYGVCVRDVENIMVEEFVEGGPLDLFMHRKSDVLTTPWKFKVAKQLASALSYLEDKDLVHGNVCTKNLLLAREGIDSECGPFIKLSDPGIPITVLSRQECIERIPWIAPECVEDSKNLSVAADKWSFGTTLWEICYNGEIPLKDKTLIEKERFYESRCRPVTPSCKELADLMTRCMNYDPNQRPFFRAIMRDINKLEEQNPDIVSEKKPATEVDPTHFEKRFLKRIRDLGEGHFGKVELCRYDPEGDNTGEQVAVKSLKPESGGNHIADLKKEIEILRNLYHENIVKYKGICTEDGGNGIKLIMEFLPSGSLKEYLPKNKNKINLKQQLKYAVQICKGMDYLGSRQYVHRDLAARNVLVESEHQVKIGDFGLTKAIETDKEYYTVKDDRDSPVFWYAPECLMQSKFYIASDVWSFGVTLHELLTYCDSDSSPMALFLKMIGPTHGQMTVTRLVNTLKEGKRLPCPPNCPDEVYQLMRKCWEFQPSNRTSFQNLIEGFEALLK
T4 sequence (O60674 whole entry): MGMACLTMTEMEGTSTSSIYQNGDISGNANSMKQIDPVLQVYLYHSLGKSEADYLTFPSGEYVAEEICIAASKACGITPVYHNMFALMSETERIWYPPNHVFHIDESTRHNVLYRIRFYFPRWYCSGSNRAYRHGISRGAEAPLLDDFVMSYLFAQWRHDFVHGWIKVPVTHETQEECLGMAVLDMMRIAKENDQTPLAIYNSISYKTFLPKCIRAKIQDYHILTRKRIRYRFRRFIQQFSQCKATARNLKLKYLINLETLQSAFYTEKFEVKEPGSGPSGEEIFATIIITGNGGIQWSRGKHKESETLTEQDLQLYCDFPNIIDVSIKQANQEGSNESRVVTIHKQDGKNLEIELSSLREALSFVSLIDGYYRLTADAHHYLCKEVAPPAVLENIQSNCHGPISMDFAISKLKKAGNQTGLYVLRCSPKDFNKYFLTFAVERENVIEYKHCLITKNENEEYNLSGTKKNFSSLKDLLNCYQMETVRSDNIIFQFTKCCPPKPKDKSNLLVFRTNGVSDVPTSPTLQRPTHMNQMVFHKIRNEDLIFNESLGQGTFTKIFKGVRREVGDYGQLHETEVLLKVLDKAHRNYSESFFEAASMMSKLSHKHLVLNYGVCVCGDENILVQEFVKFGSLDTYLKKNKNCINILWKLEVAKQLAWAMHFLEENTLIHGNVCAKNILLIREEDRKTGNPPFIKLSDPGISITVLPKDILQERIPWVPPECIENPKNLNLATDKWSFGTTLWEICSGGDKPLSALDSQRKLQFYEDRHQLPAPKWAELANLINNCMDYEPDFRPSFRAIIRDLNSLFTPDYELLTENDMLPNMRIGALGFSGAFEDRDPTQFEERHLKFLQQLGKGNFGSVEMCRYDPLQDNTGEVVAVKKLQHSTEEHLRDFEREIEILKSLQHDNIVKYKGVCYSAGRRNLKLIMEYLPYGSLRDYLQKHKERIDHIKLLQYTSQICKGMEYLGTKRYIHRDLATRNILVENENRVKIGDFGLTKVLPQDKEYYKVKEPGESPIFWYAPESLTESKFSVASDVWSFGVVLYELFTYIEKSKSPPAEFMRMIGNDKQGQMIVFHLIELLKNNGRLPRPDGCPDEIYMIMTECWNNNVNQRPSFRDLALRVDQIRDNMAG

In the case of `COc1cc(F)ccc1-c1c(C)sc2cnc(Nc3cnn(C4CCNCC4)c3)nc12` [Compound 31, N-[7-(4-fluoro-2-methoxyphenyl)-6-methylthieno[3,2-d]pyrimidinyl-2-yl]-1-(piperidinyl-4-yl)-1H-pyrazol-4-amine], on FYN kinase, the half-maximal inhibitory concentration (IC50) stood at 3.7 nM.

For `COc1cc(F)ccc1-c1c(C)sc2cnc(Nc3cnn(C4CCN(CCO)CC4)c3)nc12` [Compound 34, 2-[4-(4-{[7-(4-fluoro-2-methoxyphenyl)-6-methylthieno[3,2-d]pyrimidinyl-2-yl]amino}-1H-pyrazol-1-yl)-piperidinyl-1-yl]-1-ethanol], the concentration for half-maximal inhibition (IC50) on FYN kinase was under 5 nM; at JAK1 kinase, 5.6 nM; at JAK3 kinase, 1.1 nM; at JAK2 kinase it was 0.71 nM.
